# Earlier results, collected in patent US5045452A, “Method for evaluating nephrotoxicity” (Brigham and Women's Hospital, priority 1988, dated 1991).
# Test system: N-acetyl-beta-D-glucosaminidase
# Conditions: exposed workers
smiles,measurement,value
[Pb] [lead],urinary acetyl glucosaminidase excretion,elevated
